Data: PubChem BioAssay (NCI)
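Cultured in 96-well plates, cells were exposed to test compound for 48 hours across five concentrations. GI50 is the concentration that inhibits growth by half. TGI: concentration producing complete growth inhibition.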

Experiments:
Experiment in all cases: NCI tumour cell line growth inhibition, 48 h
COLO 205 colon = system: COLO 205 colon
SK-MEL-2 melanoma = system: SK-MEL-2 melanoma
OVCAR-5 ovarian = system: OVCAR-5 ovarian
SR leukemia = system: SR leukemia
ACHN renal = system: ACHN renal
HT29 colon = system: HT29 colon
SW-620 colon = system: SW-620 colon
OVCAR-3 ovarian = system: OVCAR-3 ovarian
TK-10 renal = system: TK-10 renal
DU-145 prostate = system: DU-145 prostate

SMILES: COc1ccc(/C=C\c2cc(OC)c(OC(C)=O)c(OC)c2)cc1
- TGI (COLO 205 colon): > 100 µM
- TGI (SK-MEL-2 melanoma): 58.8 µM
- TGI (OVCAR-5 ovarian): 88.8 µM
- TGI (SR leukemia): 98.2 µM
- TGI (ACHN renal): > 100 µM
- TGI (HT29 colon): 47.9 µM
- TGI (SW-620 colon): > 100 µM
- TGI (OVCAR-3 ovarian): > 100 µM

SMILES: O=c1c2ccc(Br)cc2nc(-c2ccccc2)n1NC1OC(CO)C(O)C(O)C1O (stereo not given)
- TGI (COLO 205 colon): > 100 µM
- TGI (SK-MEL-2 melanoma): > 100 µM
- TGI (OVCAR-5 ovarian): > 100 µM
- TGI (ACHN renal): > 100 µM
- TGI (HT29 colon): > 100 µM
- TGI (SW-620 colon): > 100 µM
- TGI (OVCAR-3 ovarian): > 100 µM
- TGI (TK-10 renal): > 100 µM

SMILES: O=C(NCCOCCO)c1ccc(O)cc1
- TGI (COLO 205 colon): > 100 µM
- TGI (ACHN renal): > 100 µM
- TGI (SW-620 colon): > 100 µM
- TGI (TK-10 renal): > 100 µM

SMILES: COc1cc(Nc2nccc(-c3cnn4ncccc34)n2)cc(OC)c1
- GI50 (COLO 205 colon): 0.0553 µM
- TGI (COLO 205 colon): 0.164 µM
- GI50 (OVCAR-5 ovarian): 0.0759 µM
- TGI (OVCAR-5 ovarian): 1.9 µM
- GI50 (ACHN renal): 0.0565 µM
- TGI (ACHN renal): 4.16 µM
- GI50 (HT29 colon): 0.0842 µM
- TGI (HT29 colon): 0.709 µM
- GI50 (SW-620 colon): 0.0758 µM
- TGI (SW-620 colon): 4.78 µM
- GI50 (OVCAR-3 ovarian): 0.0509 µM
- TGI (OVCAR-3 ovarian): 0.822 µM
- GI50 (DU-145 prostate): 0.0724 µM
- TGI (DU-145 prostate): 2.82 µM
- GI50 (TK-10 renal): 0.0982 µM
- TGI (TK-10 renal): 0.406 µM

SMILES: Cc1cc2c(C=O)[nH]nc2c(C#N)c1C
- TGI (COLO 205 colon): > 100 µM
- TGI (SK-MEL-2 melanoma): > 100 µM
- TGI (OVCAR-5 ovarian): > 100 µM
- TGI (ACHN renal): > 100 µM
- TGI (HT29 colon): > 100 µM
- TGI (SW-620 colon): > 100 µM
- TGI (OVCAR-3 ovarian): > 100 µM
- TGI (TK-10 renal): > 100 µM

SMILES: CCC1(O)CC(c2ccccc2)N(C)C(c2ccccc2)C1 (stereo not given)
- TGI (COLO 205 colon): > 100 µM
- TGI (SK-MEL-2 melanoma): > 100 µM
- TGI (OVCAR-5 ovarian): > 100 µM
- TGI (ACHN renal): > 100 µM
- TGI (HT29 colon): > 100 µM
- TGI (SW-620 colon): > 100 µM
- TGI (OVCAR-3 ovarian): > 100 µM
- TGI (TK-10 renal): > 100 µM

SMILES: CCOC(=O)/C(C#N)=C/c1[nH]c(C)c(C)c1C
- TGI (COLO 205 colon): > 100 µM
- TGI (SK-MEL-2 melanoma): > 100 µM
- TGI (OVCAR-5 ovarian): > 100 µM
- TGI (HT29 colon): > 100 µM
- TGI (SW-620 colon): > 100 µM
- TGI (OVCAR-3 ovarian): > 100 µM
- TGI (TK-10 renal): > 100 µM

SMILES: C=C(C=O)[C@@H]1CC=C(C=O)CC1
- GI50 (SK-MEL-2 melanoma): 25.6 µM
- TGI (SK-MEL-2 melanoma): 92.5 µM
- GI50 (OVCAR-5 ovarian): 26.5 µM
- TGI (OVCAR-5 ovarian): 73 µM
- GI50 (SR leukemia): 5.48 µM
- TGI (SR leukemia): > 100 µM
- GI50 (ACHN renal): 2.75 µM
- TGI (ACHN renal): 9.65 µM
- GI50 (HT29 colon): 3.54 µM
- TGI (HT29 colon): > 100 µM
- GI50 (DU-145 prostate): 3.44 µM
- TGI (DU-145 prostate): 11.2 µM
- GI50 (TK-10 renal): 8.76 µM
- TGI (TK-10 renal): 54.6 µM

SMILES: Cc1cccc(C)c1NC(=O)/C(CC(=O)CC(c1ccccc1)c1c(O)c2ccccc2oc1=O)=N/O (stereo not given)
- TGI (COLO 205 colon): > 100 µM
- TGI (SK-MEL-2 melanoma): > 100 µM
- TGI (OVCAR-5 ovarian): > 100 µM
- TGI (ACHN renal): > 100 µM
- TGI (HT29 colon): > 100 µM
- TGI (SW-620 colon): > 100 µM
- TGI (OVCAR-3 ovarian): > 100 µM
- TGI (DU-145 prostate): > 100 µM
- TGI (TK-10 renal): > 100 µM

SMILES: CCN(CC)[C@@H]1c2cc3c(cc2C(c2cc(OC)c(O)c(OC)c2)C2C(=O)CO[C@@H]21)OCO3 (stereo not given in full)
- TGI (COLO 205 colon): > 100 µM
- TGI (SK-MEL-2 melanoma): > 100 µM
- TGI (OVCAR-5 ovarian): > 100 µM
- TGI (SR leukemia): > 100 µM
- TGI (ACHN renal): > 100 µM
- TGI (HT29 colon): > 100 µM
- TGI (SW-620 colon): > 100 µM
- TGI (TK-10 renal): > 100 µM

SMILES: CC(=O)c1ccc(-c2ccc(C(C)=O)s2)s1
- TGI (COLO 205 colon): > 100 µM
- TGI (SK-MEL-2 melanoma): > 100 µM
- TGI (OVCAR-5 ovarian): > 100 µM
- TGI (SR leukemia): > 100 µM
- TGI (ACHN renal): > 100 µM
- TGI (HT29 colon): > 100 µM
- TGI (SW-620 colon): > 100 µM
- TGI (OVCAR-3 ovarian): > 100 µM
- TGI (TK-10 renal): > 100 µM

SMILES: C[C@]12CC[C@H](O)CC1CCC[C@@H]2O (stereo not given in full)
- TGI (COLO 205 colon): > 100 µM
- TGI (SK-MEL-2 melanoma): > 100 µM
- TGI (HT29 colon): > 100 µM
- TGI (SW-620 colon): > 100 µM
- TGI (OVCAR-3 ovarian): > 100 µM
- TGI (TK-10 renal): > 100 µM
